pIC50: −log10 of the molar value.
Tested on: 855422-203-R-J1-PDC complex spheroid viability
Assay: Anticancer human tumor 855422-203-R-J1-PDC patient-derived bladder carcinoma cell line growth inhibition [POLQ]
Conditions: for pIC50: curve of first compound; for viability, T/C: stronger effect = lower value
Description: Multicellular complex tumor spheroid response to Polymerase (POL) inhibitors (novobiocin, ART-558, RP6685) in combination with a variety of drugs and investigational agents in selected tumor cell lines
The POL inhibitors (novobiocin, ART-558, and RP6685) were evaluated both individually and in combination with standard of care and investigational anticancer small molecules within a complex spheroid model of solid tumors. . Complex spheroids include a stromal component modeled by human endothelial cells (HUVEC) and fibroblasts modeled by human mesenchymal stem cells (MSCs). The concentration ranges selected for each drug and investigational agent were based upon clinically achievable concentrations if the clinical Cmax of the agent was known.
Compounds. The drugs and investigational agents: novobiocin (NSC847541), ART-558 (NSC835418), RP-6685 (NSC848927), peposertib (NSC802822), ceralasertib (NSC780249), elimusertib (NSC800525), camonsertib (NSC841442), AZD-1390 (NSC803789), olaparib (NSC753686), talazoparib (NSC767125), rucaparib (NSC756644), sotorasib (NSC818433), MRTX-1133 (NSC836407), SN-38 (NSC673596), topotecan (NSC609699), epotoside (NSC141540), doxorubicin (NSC123127), gemcitabine (NSC613327), 5-fluorouracil (NSC19893), paclitaxel (NSC125973), vemurafenib (NSC761431), MSA-2 (NSC828583), SN-011 (NSC837082), adavosertib (NSC754352), prexasertib (NSC758257), carboplatin (NSC241240) and oxaliplatin (NSC266046), were obtained from the National Cancer Institute (NCI) Developmental Therapeutics Program Chemical Repository (21). The FDA-approved anticancer drug set is available from the Developmental Therapeutics Program at https://dtp.cancer.gov/organization/dscb/obtaining/. […] The stock solutions were prepared in dimethyl sulfoxide (DMSO, Sigma-Aldrich, St. Louis, MO, cat. D2650), except for the platinum compounds which were prepared in saline (Quality Biological, Gaithersburg, MD, cat. 114-055-101), at 800-fold the tested concentration and stored at -70 degrees C prior to their use. All drugs and investigational agents were tested over a range starting from a high concentration at or near the clinical Cmax and decreasing in half-log increments. If the clinical Cmax for an agent had not been determined, the highest concentration tested was 10 microM, except for SN-38, which was tested at a high concentration of 1 microM.
Cell Culture. All cells were maintained in an incubator at 37 degrees C and 5% CO2 with 95% humidity. The PDC lines were cultured according to standard operating procedures established by the NCI PDMR (https://pdmr.cancer.gov). Table 3 of the manuscript, lists the cell lines along with the number of the three cell types plated to form the mct-spheroids and media for tumor cell growth. After thawing, all PDC lines, except 997537-175-T-J1-PDC and 415267-285-R-J2-PDC, were cultured in Matrigel-coated flasks prepared with a working solution of 1X Ham's F-12 nutrient mix, without supplementation (Thermo Fisher Scientific, cat. 11765054), 100 U/mL penicillin-streptomycin (Thermo Fisher Scientific, cat. 15140122), and 2.5% Matrigel (Corning Inc., Corning, NY, cat. 354248) for the first three passages. The two PDC lines 997537-175-T-J1-PDC and 415267-285-R-J2-PDC were cultured on uncoated flasks. The 857933-349-R-J2-PDC line was cultured in 6C/Colon 1B media containing advanced DMEM/F-12 (Thermo Fisher Scientific, cat. 12634028), 10 mM HEPES (Thermo Fisher Scientific, cat. 15630080), 1X GlutaMAX supplement (Thermo Fisher Scientific, cat. 35050061), 0.1 mg/mL primocin (InvivoGen, San Diego, CA, cat. ant-pm-2), 10% defined fetal bovine serum, heat inactivated (HyClone Laboratories Inc., Logan, UT, cat. SH30070.03HI), 50% L-WRN conditioned media (ATCC, cat. CRL-3276), 1.25 mM N-Acetyl-L-cysteine (Sigma-Aldrich, cat. A9165), 10 mM nicotinamide (Sigma-Aldrich, cat. N0636), 1X B-27 supplement (Thermo Fisher Scientific, cat. 17504044), 1X N-2 supplement (Thermo Fisher Scientific, cat. […]

[1] = second compound 0.0316 µM, first compound 0.0316 µM
[2] = second compound 0.0316 µM, first compound 0.1 µM
[3] = second compound 0.1 µM, first compound 0.0316 µM
[4] = second compound 0.1 µM, first compound 0.1 µM
[5] = second compound 0.316 µM, first compound 0.0316 µM
[6] = second compound 0.316 µM, first compound 0.1 µM
[7] = second compound 1 µM, first compound 0.0316 µM
[8] = second compound 1 µM, first compound 0.1 µM
[9] = second compound 3.16 µM, first compound 0.0316 µM
[10] = second compound 3.16 µM, first compound 0.1 µM
[11] = second compound 10 µM, first compound 0.0316 µM
[12] = second compound 10 µM, first compound 0.1 µM
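Further: spheroids exposed to compounds for seven days before readout.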

Compound: Cn1ncnc1[C@H]1c2n[nH]c(=O)c3cc(F)cc(c23)N[C@@H]1c1ccc(F)cc1 + Cc1cccc(N(C)C(=O)C2C(O)CCN2c2nc(C)cc(C(F)(F)F)c2C#N)c1
- pIC50 (second compound 0.0316 µM): < 7.00
- pIC50 (second compound 0.1 µM): < 7.00
- pIC50 (second compound 0.316 µM): < 7.00
- pIC50 (second compound 1 µM): < 7.00
- pIC50 (second compound 3.16 µM): < 7.00
- pIC50 (second compound 10 µM): < 7.00
- viability, T/C (second compound 0.0316 µM, first compound 0.000316 µM): 114%
- viability, T/C (second compound 0.0316 µM, first compound 0.001 µM): 107%
- viability, T/C (second compound 0.0316 µM, first compound 0.00316 µM): 115%
- viability, T/C (second compound 0.0316 µM, first compound 0.01 µM): 108%
- viability, T/C [1]: 108%
- viability, T/C [2]: 103%
- viability, T/C (second compound 0.1 µM, first compound 0.000316 µM): 102%
- viability, T/C (second compound 0.1 µM, first compound 0.001 µM): 103%
- viability, T/C (second compound 0.1 µM, first compound 0.00316 µM): 98.5%
- viability, T/C (second compound 0.1 µM, first compound 0.01 µM): 100%
- viability, T/C [3]: 105%
- viability, T/C [4]: 107%
- viability, T/C (second compound 0.316 µM, first compound 0.000316 µM): 108%
- viability, T/C (second compound 0.316 µM, first compound 0.001 µM): 104%
- viability, T/C (second compound 0.316 µM, first compound 0.00316 µM): 116%
- viability, T/C (second compound 0.316 µM, first compound 0.01 µM): 104%
- viability, T/C [5]: 116%
- viability, T/C [6]: 104%
- viability, T/C (second compound 1 µM, first compound 0.000316 µM): 100%
- viability, T/C (second compound 1 µM, first compound 0.001 µM): 109%
- viability, T/C (second compound 1 µM, first compound 0.00316 µM): 112%
- viability, T/C (second compound 1 µM, first compound 0.01 µM): 102%
- viability, T/C [7]: 104%
- viability, T/C [8]: 97.3%
- viability, T/C (second compound 3.16 µM, first compound 0.000316 µM): 98.6%
- viability, T/C (second compound 3.16 µM, first compound 0.001 µM): 98%
- viability, T/C (second compound 3.16 µM, first compound 0.00316 µM): 96.4%
- viability, T/C (second compound 3.16 µM, first compound 0.01 µM): 113%
- viability, T/C [9]: 113%
- viability, T/C [10]: 104%
- viability, T/C (second compound 10 µM, first compound 0.000316 µM): 109%
- viability, T/C (second compound 10 µM, first compound 0.001 µM): 103%
- viability, T/C (second compound 10 µM, first compound 0.00316 µM): 94.4%
- viability, T/C (second compound 10 µM, first compound 0.01 µM): 100%
- viability, T/C [11]: 111%
- viability, T/C [12]: 99.2%

Compound: O=C(c1cc(Cc2n[nH]c(=O)c3ccccc23)ccc1F)N1CCN(C(=O)C2CC2)CC1 + Cc1cccc(N(C)C(=O)C2C(O)CCN2c2nc(C)cc(C(F)(F)F)c2C#N)c1
- pIC50 (second compound 0.0316 µM): < 5.00
- pIC50 (second compound 0.1 µM): < 5.00
- pIC50 (second compound 0.316 µM): < 5.00
- pIC50 (second compound 1 µM): < 5.00
- pIC50 (second compound 3.16 µM): < 5.00
- pIC50 (second compound 10 µM): < 5.00
- viability, T/C [1]: 117%
- viability, T/C [2]: 114%
- viability, T/C (second compound 0.0316 µM, first compound 0.316 µM): 117%
- viability, T/C (second compound 0.0316 µM, first compound 1 µM): 107%
- viability, T/C (second compound 0.0316 µM, first compound 3.16 µM): 101%
- viability, T/C (second compound 0.0316 µM, first compound 10 µM): 80.1%
- viability, T/C [3]: 111%
- viability, T/C [4]: 103%
- viability, T/C (second compound 0.1 µM, first compound 0.316 µM): 108%
- viability, T/C (second compound 0.1 µM, first compound 1 µM): 109%
- viability, T/C (second compound 0.1 µM, first compound 3.16 µM): 101%
- viability, T/C (second compound 0.1 µM, first compound 10 µM): 75.3%
- viability, T/C [5]: 105%
- viability, T/C [6]: 95%
- viability, T/C (second compound 0.316 µM, first compound 0.316 µM): 110%
- viability, T/C (second compound 0.316 µM, first compound 1 µM): 111%
- viability, T/C (second compound 0.316 µM, first compound 3.16 µM): 103%
- viability, T/C (second compound 0.316 µM, first compound 10 µM): 76.8%
- viability, T/C [7]: 104%
- viability, T/C [8]: 108%
- viability, T/C (second compound 1 µM, first compound 0.316 µM): 111%
- viability, T/C (second compound 1 µM, first compound 1 µM): 107%
- viability, T/C (second compound 1 µM, first compound 3.16 µM): 106%
- viability, T/C (second compound 1 µM, first compound 10 µM): 81.2%
- viability, T/C [9]: 93.8%
- viability, T/C [10]: 103%
- viability, T/C (second compound 3.16 µM, first compound 0.316 µM): 120%
- viability, T/C (second compound 3.16 µM, first compound 1 µM): 103%
- viability, T/C (second compound 3.16 µM, first compound 3.16 µM): 105%
- viability, T/C (second compound 3.16 µM, first compound 10 µM): 66.9%
- viability, T/C [11]: 109%
- viability, T/C [12]: 113%
- viability, T/C (second compound 10 µM, first compound 0.316 µM): 114%
- viability, T/C (second compound 10 µM, first compound 1 µM): 106%
- viability, T/C (second compound 10 µM, first compound 3.16 µM): 96.7%
- viability, T/C (second compound 10 µM, first compound 10 µM): 65.1%
